Reference: US9119396B2, “Method for promoting plant growth” (SUMITOMO CHEMICAL COMPANY, LIMITED, priority 2011, dated 2015)

System: Rice (cultivar: Nipponbare)
Assay: Test Example 11: reduction of drought stress by treatment of rice seeds
Assay type: in vivo
Conditions: rice seed treatment, 100 g per 100 kg of seeds; drought stress 2 days, then 14 days cultivation
Protocol: Evaluation Test for Reduction of Drought Stress by Treatment of Rice Seeds Rice (cultivar: Nipponbare) A blank slurry solution containing 5% (V/V) color coat red (Becker Underwood, Inc.), 5% (V/V) CF-Clear (Becker Underwood, Inc.) and 1% Maxim XL (Syngenta) was prepared. A slurry solution was prepared by dissolving the present compound 1 in the blank slurry solution such that 100 g of the compound is applied to each 100 kg of rice seeds. In a 50-ml centrifuge tube (manufactured by AGC TECHNO GLASS CO., LTD.), 0.3 ml of the slurry solution was placed for each 10 g of rice seeds and stirred until the solution was dried, thereby coating the seeds. In addition, seeds were coated with the blank slurry solution and used as seeds for a non-treated group. A filter paper was placed on the holes of a plug tray having 406 holes, and the rice seeds treated above were sown on the filter paper. […] Fourteen (14) days after the treatment, the fresh weight of the overground parts of five test plants in each treated group was measured. The experiment was performed in three replications in each treated group and the average value was calculated. […]

## COC(=O)c1cc2cc(C(F)(F)F)ccc2s1 [compound 1]
  fresh weight of the overground part of plants vs non-treated group: much heavier
